The results in this text go back to patent publication US10561702B2, “Method for the treatment of skin disorders using dipeptide diaminobutyroyl benzylamide diacetate” (DSM IP ASSETS B.V., priority 2015, dated 2020).

Several values for one entry are separate records, joined by “and”; a condition that tells them apart may be missing. Identical values can stand only once.

The test system of experiment [1] is human sebaceous glands. Kind of experiment: Ex vivo assay with sebaceous glands (organ culture, total lipid quantification). It counts as cell-based. Conditions: day 6; for Total fat quantification, Average (1-12): average of 12 SG test samples, untreated 17.5. An excerpt:
2. Ex Vivo Assay with Sebaceous Glands (SG)
Organ culture of human sebaceous glands has been performed in order to verify the modulatory activity of H-(beta-Ala)-Pro-Dab-NH-benzyl on sebum secretion. A viability test has been performed in parallel. Human sebaceous glands from skin sample od labia minora have been used (donor). The epidermis of the full thickness sample has been carefully removed and the sebaceous glands have been micro-dissected.
The sebaceous glands have been pooled in groups of eight and cultured up to day 6. SGs are cultured in 24 well plate immersed in 500 μl of SGs medium (modified Williams'E medium). After 24 hours the culture medium has been changed and substituted with the medium containing the substance to be tested. The medium has been renewed at day 3 and 5 of culture. At day 6 the glands have been collected and used for the quantification of lipids and proteins. Briefly the SGs have been homogenized in isopropyl alcohol (IPOH) in order to extract lipids and let the protein undissolved. An aliquot of IPOH has been withdrawn to measure the lipids whereas the rest has been evaporated in a vacuum centrifuge. The remaining dry pellet has been minced again in presence of protein lysis buffer. The lipids dissolved in IPOH and the protein dissolved in the lysis buffer have been quantified by infrared spectroscopy (Millipore Direct Detect). The total lipid amount has been obtained by normalizing the quantified lipids upon the quantified proteins (i.e. mg of lipids/mg of proteins).

Experiment [2] has as its target T1, DPP4 (Homo sapiens, UniProt P27487).
T1 construct: purchased Enzo Life Sciences
Kind of experiment: Dipeptidyl Peptidase 4 (DPP4) protease assay (DPP4 Drug Discovery Kit, fluorogenic substrate H-Gly-Pro-AMC). It counts as biochemical. Conditions: for DPP4 activity: % activity remaining. On the procedure: 1. Dipeptiyl Peptidase 4 (DPP4) Protease Assay Method
The potential of H-(beta-Ala)-Pro-Dab-NH-benzyl [CAS 823202-99-9], respectively N-Pal-Gly-His-Lys [147732-56-7]/N-Pal-Gly-Gln-Pro-Arg [221227-05-0] (2:1) to inhibit DPP4 was tested using the DPP4 Drug Discovery Kit from Enzo Life Sciences. In brief: DPP4 is pre-incubated for 10 minutes with inhibitors and then added to a quenched fluorogenic substrate (H-Gly-Pro-AMC). Cleavage of the AMC-moiety from the c-terminus of the peptide substrate by DPP4 increases its fluorescence intensity at 460 nm. The AMC signal is then recorded using a fluorescence microplate reader at Ex/Em=380/460 every minute for a total time of 20 min. A “best fit” line is generated with the data points of the first 10-20 min and the slope calculated. The remaining activity in the presence of inhibitor was calculated as follows: % activity remaining (with inhibitor)=(slope of inhibitor-sample/slope of control-sample)*100.

T1 sequence (P27487 whole entry): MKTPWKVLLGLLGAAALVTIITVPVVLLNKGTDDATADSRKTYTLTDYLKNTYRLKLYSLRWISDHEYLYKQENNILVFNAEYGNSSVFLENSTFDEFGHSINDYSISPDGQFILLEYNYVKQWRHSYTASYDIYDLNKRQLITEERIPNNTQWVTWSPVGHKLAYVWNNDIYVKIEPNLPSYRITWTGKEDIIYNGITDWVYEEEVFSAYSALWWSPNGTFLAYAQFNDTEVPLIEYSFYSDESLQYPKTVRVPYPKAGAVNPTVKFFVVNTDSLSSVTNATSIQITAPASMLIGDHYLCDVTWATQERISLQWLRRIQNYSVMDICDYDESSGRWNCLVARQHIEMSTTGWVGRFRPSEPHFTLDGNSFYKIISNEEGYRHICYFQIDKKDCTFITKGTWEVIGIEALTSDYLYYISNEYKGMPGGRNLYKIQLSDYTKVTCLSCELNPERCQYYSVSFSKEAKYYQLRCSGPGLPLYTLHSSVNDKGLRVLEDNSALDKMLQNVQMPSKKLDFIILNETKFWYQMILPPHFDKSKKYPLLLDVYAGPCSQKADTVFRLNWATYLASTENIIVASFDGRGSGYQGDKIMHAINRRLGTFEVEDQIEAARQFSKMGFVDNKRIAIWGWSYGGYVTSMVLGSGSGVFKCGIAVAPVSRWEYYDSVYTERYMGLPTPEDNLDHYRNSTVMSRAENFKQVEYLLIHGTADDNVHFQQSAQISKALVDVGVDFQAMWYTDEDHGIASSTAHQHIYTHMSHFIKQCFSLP

Consider `COc1cc(CNC(=O)CCCC/C=C/C(C)C)ccc1O` [Capsaicin], for which the “Total fat quantification, Average (1-12)” value in experiment [1] (5 μM) is given as 15.5 mg lipid/mg protein. In addition, in experiment [1] (5 μM, single SG test samples 1-12), the Total fat quantification is 15.8 mg lipid/mg protein and 15.7 mg lipid/mg protein and 15.5 mg lipid/mg protein and 15.6 mg lipid/mg protein and 15.4 mg lipid/mg protein and 15.3 mg lipid/mg protein and 15.1 mg lipid/mg protein.

As for H-(beta-Ala)-Pro-Dab-NH-benzyl, the “Total fat quantification, Average (1-12)” value in experiment [1] (10 μM) is recorded as 14.2 mg lipid/mg protein. Further, the DPP4 activity is recorded as 74% in experiment [2] (0.77 ppm / 1.56 μM); 58% in experiment [2] (1.55 ppm / 3.13 μM); 40% in experiment [2] (3.10 ppm / 6.25 μM); 24% in experiment [2] (6.19 ppm / 12.50 μM); 14% in experiment [2] (12.39 ppm / 25.00 μM); 7% in experiment [2] (24.78 ppm / 50.00 μM). Further, the values for the DPP4 activity in experiment [2] (49.55 ppm / 100.00 μM) and in experiment [2] (99.10 ppm / 200.00 μM) were 4% and 2%, respectively. For the same compound, the “Effect on DPP4 (in words)” value in experiment [2] (summary of tables 1 and 2) was “capable to inhibit DPP4”.
